Measured values published in ChEMBL document CHEMBL4680067, “Identification of LASSBio-1945 as an inhibitor of SARS-CoV-2 main protease (MPRO) through in silico screening supported by molecular docking and a fragment-based pharmacophore model” (RSC Med Chem, 2021).
pEC50, pIC50: −log10 of the molar value.

Key:
[1] = test system: Severe acute respiratory syndrome coronavirus 2; experiment: Inhibition of SARS CoV-2 main protease at 50 uM by rapidfire high-throughput mass spectrometry relative to control
[2] = Inhibition of SARS CoV-2 main protease by rapidfire high-throughput mass spectrometry; set-up: species or system Severe acute respiratory syndrome coronavirus 2; conditions: for pIC50: read-out: IC50
[3] = Inhibition of SARS CoV-2 main protease; set-up: species or system Severe acute respiratory syndrome coronavirus 2
SARS-CoV-2 = experiment: Antiviral activity against SARS CoV-2 infected in African green monkey Vero cells assessed as inhibition of viral replication measured after 72 hrs by qRT-PCR analysis; type: functional, organism-based; conditions: Severe acute respiratory syndrome coronavirus 2, Vero

For `Cc1csc(C(=O)N/N=C/c2cccnc2)c1N`, the inhibition [1] was -6.32%.

For `CCCc1cc2c(cc1S(=O)(=O)N1CCN(c3ccccc3)CC1)OCO2`, the inhibition [1] was 68.3% and the pIC50 [2] was 4.80.

In the case of `O=C(Nc1ccccc1)Nc1cnc2ccc([N+](=O)[O-])cc2n1`, the inhibition [1] was 0.77%.

With `O=C(Cc1cccc(Cl)c1)Nc1cccnc1` the pIC50 [2] was 4.27.

Work on `Cc1[nH]c2ccccc2c1/C=N/N(C)C(=O)c1ccc2c(c1)OCO2` yielded an inhibition [1] of -6.66%.

For `COc1ccc(/N=C2/C(=O)N(Cc3ccc4ccccc4c3)c3ccc(C(N)=O)cc32)cc1`, the pIC50 [3] was 4.77.

In the case of `Cc1ccc(NC(=O)Cc2cccc(Cl)c2)cn1`, the IC50 [2] was “Not Active”.

In the case of `Cc1cc(C(=O)N[C@@H](C)C(=O)N[C@H](C(=O)N[C@@H](CC(C)C)C(=O)N[C@H](/C=C/C(=O)OCc2ccccc2)C[C@@H]2CCNC2=O)C(C)C)no1`, the pEC50 (SARS-CoV-2) was 4.78.

For `Cc1ncccc1NC(=O)Cc1cccc(Cl)c1`, the IC50 [2] was “Not Active”.

`O=C(CNc1c(-c2ccccc2)nc2ccccn12)N/N=C/c1cccc2ccccc12` gave an inhibition [1] of 7.53%.
